In patent US20260083731A1, “METHODS OF TREATING UVEAL MELANOMA WITH A PKC INHIBITOR” (IDEAYA BIOSCIENCES, INC., priority 2022, published 2026):

How the values were obtained:
[1] = system: uveal melanoma cells harboring GNAQ mutations; conditions: by targeting PKC/ERK1/2 and PKC/NF-xB pathways; X. Wu et al. 2012; cited from earlier work
[2] = system: ocular tumor (uveal melanoma); experiment: Neoadjuvant treatment of uveal melanoma patients, ocular tumor size by ocular ultrasound; format: in vivo, human; conditions: vs baseline
Text: Patients can meet all of the following inclusion criteria: • Patient must be at least 18 years of age. • Patient is able to provide written, informed consent before initiation of any study related-procedures, and is able, in the opinion of the investigator, to comply with all the requirements of the study. • Primary diagnosis of uveal melanoma as clinically determined by the treating investigator planned to undergo enucleation (prior plaque brachytherapy is permitted) • Life expectancy >3 months. • Able to safely swallow orally administered medication. • Patients with a prior history of or clinically stable concurrent malignancy are eligible for enrolment provided the malignancy is clinically insignificant, no treatment is required, and the patient is clinically stable. • Patients with a history of squamous or basal cell carcinoma of the skin or carcinoma in the situ of the cervix may be enrolled. • Patients with prostate cancer with an elevated PSA not requiring treatment may be enrolled. • Patient has Eastern Cooperative Oncology Group (ECOG) performance status 0-1 (Karnofsky 70%). • Patient has adequate organ function at screening: • Absolute neutrophil count ≥1500/mm3 without the use of hematopoietic growth factors • Platelet count ≥75,000/mm3 (must be at least 2 weeks post-platelet transfusion and not receiving platelet-stimulating agents) • Haemoglobin ≥8.0 g/dL (must be at least 2 weeks post-red blood cell transfusion and not receiving erythropoietic-stimulating agents) • Total bilirubin ≤1.5× the upper limit of normal (ULN).
The presence of any of the following can exclude a patient from being eligible for the study: • Previous treatment with a PKC inhibitor • Have adverse events (AEs) from prior anti-cancer therapy that have not resolved to Grade ≤1 except for alopecia, prior peripheral neuropathy, or anemia. Endocrinopathies resulting from previous immunotherapy are considered part of the medical history and not an AE. • Untreated or symptomatic malignant lesions in the central nervous system (CNS). • Known human immunodeficiency virus (HIV) or acquired immunodeficiency syndrome (AIDS)-related illness. • Active infection requiring therapy (except nail fungus), positive tests for Hepatitis B surface antigen (HBsAg) with detected Hepatitis B virus (HBV) DNA or positive Hepatitis C antibody with detected Hepatitis C virus (HCV) RNA. • Prior gastrectomy or upper bowel removal or any other gastrointestinal disorder or defect e.g., malabsorption disorder such as Crohn's disease or ulcerative colitis, that would interfere with absorption of Compound 1. • Patients who are receiving treatment with medications that cannot be discontinued prior to study entry and that are considered to be any of the following • known to be strong inducers or inhibitors of CYP3A4/5 • known to be substrates of CYP3A4/5, OAT3, OATP1B1, and MATE1/2-K with a narrow therapeutic index • Females who are pregnant or breastfeeding: • Women of childbearing potential must not be considering getting pregnant during the study. • Patients of reproductive potential (male & female) must practice an effective method of contraception during treatment and for 30 days following the last dose of Compound 1. […] If electrolytes are abnormal, they may be corrected, and baseline ECGs should be repeated. • Known to have previously received Compound 1 • Presence of any other condition that may increase the risk associated with study participation or may interfere with the interpretation of study results and, in the opinion of the investigator, would make the patient inappropriate for entry into the study.
A patient (patient 1) (enrolled in NCT05187884) was treated with Compound 1 (300 mg BID) for 27 days, prior to potential planned interventional procedure comprising enucleation. A 22% ocular tumor reduction in maximal apical height by ocular ultrasound (after about 28 days administration of Compound 1) was observed prior to the planned interventional procedure. […]

[3] = system: ocular tumor (uveal melanoma); experiment: Clinical outcome of the affected eye in treated uveal melanoma patients; format: in vivo, human
Procedure: (§1) A patient (patient 2) (enrolled in NCT02601378) with metastatic disease to liver and peritoneum at the time of diagnosis, and with primary lesion intact (intact ocular tumor) was treated with Compound 1 (300 mg BID).
A patient (patient 5) (enrolled in NCT05187884) was treated with Compound 1 (300 mg BID) for about 28 days. A 13% ocular tumor reduction in maximal apical height by ocular ultrasound was observed (after about 28 days administration of Compound 1). The patient is continuing on treatment to maximal benefit up to 6 months prior to planned enucleation. The patient was continuing treatment with Compound 1 (300 mg BID) for additional about 3 months (in addition to about 28 days as described above), and a 24% ocular tumor reduction in maximal apical height by ocular ultrasound was observed. […] The patient continues on adjuvant therapy for potentially up to 6 months.
A patient (patient 6) (enrolled in NCT05187884) was treated with Compound 1 (300 mg BID) for about 56 days, prior to the planned interventional procedure (e.g. enucleation). A 11% ocular tumor reduction in maximal apical height and 23% in Largest Basal Diameter by ocular ultrasound was observed. The patient is continuing on treatment to maximal benefit up to 6 months prior to planned enucleation. The patient continued treatment with Compound 1 (300 mg BID) for about 2 months (in addition to the 56 days as described above), and a 24% ocular tumor reduction in maximal apical height by ocular ultrasound was observed. The patient continued treatment with Compound 1 (300 mg BID) for about 1 month (in addition to about 4 months described above), and a 45% ocular tumor reduction in maximal apical height and 63% reduction in Largest Basal Diameter by ocular ultrasound was observed.

[4] = system: ocular tumor (uveal melanoma); experiment: PET scan of metabolic activity of the ocular tumor (FDG avidity, SUV) in treated patients; format: in vivo, human
Procedure: as §1
A patient (patient 4) (enrolled in NCT05187884) was treated with Compound 1 (300 mg BID) for about 28 days, prior to the planned interventional procedure (e.g., enucleation). A 31% ocular tumor reduction in maximal apical height by ocular ultrasound was observed (after about 28 days administration of Compound 1).

[5] = patient 6, 300 mg BID, about 4 months plus about 1 month
[6] = patient 6, 300 mg BID, about 56 days
[7] = patient 7, 300 mg BID, after about 84 days
[8] = patient 8, 300 mg BID, after about 84 days
[9] = patient 9, 300 mg BID, after about 56 days

CN1CCN(c2nc(C3=C(c4c[nH]c5ccccc45)C(=O)NC3=O)c3ccccc3n2)CC1 [sotrastaurin]
inhibition of growth of uveal melanoma cells harboring GNAQ mutations [1]: selectively inhibit the growth

CC1(N)CCN(c2cccnc2NC(=O)c2nc(-c3ncccc3C(F)(F)F)cnc2N)CC1 [Compound 1]
ocular tumor reduction in maximal apical height by ocular ultrasound ([2]; patient 1, 300 mg BID, after about 28 days): 22% | ocular tumor reduction in maximal apical height by ocular ultrasound ([2]; patient 3, 300 mg BID, after 28 days): ~10% | ocular tumor reduction in maximal apical height by ocular ultrasound ([2]; patient 4, 300 mg BID, after about 28 days): 31% | ocular tumor reduction in maximal apical height by ocular ultrasound ([2]; patient 5, 300 mg BID, about 28 days plus additional about 3 months): 24% | ocular tumor reduction in maximal apical height by ocular ultrasound ([2]; patient 5, 300 mg BID, after about 28 days): 13% | ocular tumor reduction in maximal apical height by ocular ultrasound ([2]; patient 6, 300 mg BID, 56 days plus about 2 months): 24% | ocular tumor reduction in maximal apical height by ocular ultrasound [2, 5]: 45% | reduction in Largest Basal Diameter by ocular ultrasound [2, 5]: 63% | ocular tumor reduction in maximal apical height by ocular ultrasound [2, 6]: 11% | reduction in Largest Basal Diameter by ocular ultrasound [2, 6]: 23% | ocular tumor reduction in maximal apical height by ocular ultrasound [2, 7]: 14.3% | reduction in Largest Basal Diameter by ocular ultrasound [2, 7]: 15.2% | ocular tumor reduction in maximal apical height by ocular ultrasound [2, 8]: 28.5% | reduction in Largest Basal Diameter by ocular ultrasound [2, 8]: 19.4% | ocular tumor reduction in maximal apical height by ocular ultrasound [2, 9]: 4.0% | reduction in Largest Basal Diameter by ocular ultrasound [2, 9]: 2.1% | patient-reported visual symptoms in affected eye ([3]; patient 2, 300 mg BID): improvement in visual symptoms in affected eye | eye outcome (plaque brachytherapy enabled instead of planned enucleation) ([3]; patient 5, 300 mg BID neoadjuvant): the eye was preserved | eye outcome (plaque brachytherapy enabled instead of planned enucleation) ([3]; patient 6, 300 mg BID neoadjuvant): the eye was preserved | reduction in the metabolic activity of the ocular tumor (FDG avidity) by SUV, PET ([4]; patient 2 (metastatic disease, intact ocular tumor), 300 mg BID, after about two weeks): 74% | reduction in the metabolic activity of the ocular tumor (FDG avidity) by SUV, PET ([4]; patient 4, 300 mg BID, after about one month): 42%
